Results: a melting point compilation (Tetko et al.; mined from patent text by program, amines drawn as free bases though some values may be those of a salt)

In the case of `CC(=O)OCCCc1ccc(-c2ccc3cc(C(=O)OCc4ccccc4)ccc3c2)cc1C12CC3CC(CC(C3)C1)C2`, the melting point is reported as 132 °C. Compound `Cc1c(-c2ccccc2)c(N2CC[C@@H](N(C)C)C2)c2oc(C(=O)N(C)C)nc2c1C#N` has a melting point of 67 to 70 °C. With `O=C(NC12CC3CC(CC(C3)C1)C2)c1ncon1` the melting point was 141 to 142 °C. Work on `O=C1CCNC(=O)C1C(=O)c1ccc(C(F)(F)F)cc1` (stereo unspecified) yielded a melting point of 197 to 200 °C. With `CC(C)OC(N)=C(C#N)C(=N)S` the melting point was 170 °C. `O=C(NCC(=O)N1[C@@H](c2ccccc2)CC[C@H]1c1ccccc1)Nc1cccc(C(=O)O)c1` showed a melting point of 255 °C. In the case of `Clc1cccc(Nc2ncnc3[nH]c(CN4CCOCC4)cc23)c1`, the melting point is reported as 244 to 246 °C. For `Cc1cc(C)cc(COC(=O)C(Cc2c[nH]c3ccccc23)NS(=O)(=O)c2ccccc2)c1` (stereo unspecified), the melting point was 114 to 116 °C. Compound `Nc1ncnc2c1c(-c1cc(F)c(O)c(F)c1)nn2Cc1oc2ccc(F)cc2c(=O)c1-c1cccc(F)c1` has a melting point of 274 to 278 °C. `O=C(OCCCl)C(O)c1ccccc1` (stereo unspecified) showed a melting point of 43 to 45 °C. `COC(=O)c1cc(-c2nc(COc3ccc(COc4nn(-c5ccccc5)cc4C=O)cc3OC)c(C)o2)ccc1OC` showed a melting point of 165 to 166 °C. Compound `Oc1ccc(-c2ncc3ncc(-c4cccc(O)c4)cc3n2)cc1` has a melting point of 256 to 257 °C. For `COc1ccc(C(=O)N2c3ccccc3C(N3CCCCc4ccccc43)=CC2C)cc1OC` (stereo unspecified), the melting point was 151 to 152 °C. Compound `C=CCSc1nc(O)nn1CC` has a melting point of 74 to 76 °C. `CC(C)(C)OC(=O)N1CCN(c2cccc3c2c(Br)cn3S(=O)(=O)c2ccccc2)CC1` gave a melting point of 188 to 189 °C. In the case of `O=C(N[C@H](Cc1ccc(C(F)(F)F)cc1)[C@@H](O)c1cccc(F)c1)c1ccc(F)c2ccccc12` (racemic), the melting point is reported as 200 to 201 °C. In the case of `CCCc1nc(Sc2ccc(O)cc2)c(C=O)n1Cc1cc2c(cc1Cl)OCO2`, the melting point is reported as 242 °C. Compound `COc1cc(OC)c2cc(-c3ccc(OC)nc3OC)oc2c1` has a melting point of 155 to 156 °C. With `CC=C1c2ccccc2CC(NO)c2ccccc21` (stereo unspecified) the melting point was 121 to 124 °C. For `Cc1cc(=O)[nH]c2ccc(Br)cc12`, the melting point was 292 to 299 °C. Work on `CSc1nc(=O)n(C(C)(C)C)c(=O)[nH]1` yielded a melting point of 112 to 115 °C. With `CC(=O)n1ccc(N2CCCC2)c1C(=O)c1cccnc1Nc1cccc(Cl)c1` the melting point was 170 to 173 °C. `Nc1nc2ccccc2c2c1nc(COc1ccccc1)n2CCOc1ccccc1` gave a melting point of 168 to 170 °C. `O=C1NC(=S)NC1Cc1c[nH]c2ccccc12` (stereo unspecified) showed a melting point of 206 to 210 °C. Work on `COC1=CC=CC(OCCCN2CCN(c3n[nH]c4ccccc34)CC2)(C(C)=O)C1` (stereo unspecified) yielded a melting point of 155 to 157 °C. In the case of `O=S1(=O)c2ccccc2N(c2ccccc2O)c2ccccc21`, the melting point is reported as 282 to 287 °C. `CC1=C(C)CC(C(=O)Nc2ccccc2)C(C(=O)O)C1` (stereo unspecified) showed a melting point of 155 to 156 °C. `O=C(c1ccccc1)C1CCN1C(c1ccccc1)c1ccccc1` (stereo unspecified) showed a melting point of 114 to 115 °C. Work on `O=C1CCNc2ccccc2N1c1ccccc1` yielded a melting point of 170 to 171 °C. Work on `CCc1ccc(NC(=O)Nc2cc(C(C)(C)C)sc2C(=O)NC)cc1` yielded a melting point of 101 to 104 °C. With `CC(C)(C)OC(=O)N1C[C@@H]2SCCC(c3ccccc3)(c3ccccc3)[C@@H]2C1` (racemic) the melting point was 162 °C. In the case of `CC(=O)NNc1ccc(NCc2ccccc2)cc1`, the melting point is reported as 118 to 120 °C. Compound `CCCCNC(=O)NC(=O)C(C)Oc1ccc(Oc2ncc(C(F)(F)F)cc2Cl)cc1` (stereo unspecified) has a melting point of 126 to 127 °C. `C=CCNc1ccc(C(=O)O)cc1[N+](=O)[O-]` gave a melting point of 195 to 200 °C. `CN(C)c1ccc(CCc2ccc3c(=O)[nH]ncc3c2)cc1` gave a melting point of 257 to 259 °C. Compound `CCCCCCCCCCCC(=O)N[C@@H](CC(C)C)C(=O)N[C@@H](C(C)C)[C@@H](O)c1c(-c2ccccc2)c1=O` has a melting point of 123 to 127 °C. Work on `N#CC(N=Cc1ccc([N+](=O)[O-])cc1)=C(Cl)Cl` yielded a melting point of 171 to 174 °C. Compound `Clc1ccc2[nH]c(-c3ccccc3)c(CCN3CCCCC3)c2c1` has a melting point of 153 to 154 °C. `O=S1(=O)NC[C@@H](O)c2cc(Cl)sc21` showed a melting point of 126 to 127 °C. Compound `CC(C)CCc1c(-c2ccc(S(N)(=O)=O)cc2)cnn(-c2ccc(F)cc2)c1=O` has a melting point of 180 to 183 °C. Compound `CC(C)C(=O)c1cn(Cc2c(F)cccc2F)c2sc(-c3ccc(NC(=O)C(C)(C)O)cc3)c(CN(C)Cc3ccccc3)c2c1=O` has a melting point of 178 to 180 °C. For `COc1cccc2c1CC(C(=O)NCCOc1ccc(C(=O)OC(C)(C)C)cc1)N2S(=O)(=O)c1ccc(-c2ccc(F)cc2F)cc1` (stereo unspecified), the melting point was 135 °C. With `Nc1ncccc1OCc1cc2c(cc1Cl)OCO2` the melting point was 100 to 104 °C. `C=Cc1ccc(Nc2nc(Cl)nc(OC)n2)cc1` showed a melting point of 118 to 122 °C. Compound `Clc1ccc2c(c1)CCN(c1ccccc1)C2` has a melting point of 67 to 70 °C. For `Nc1ccc(S(=O)(=O)Nc2cc(Cl)nc(C(F)(F)F)c2)cc1`, the melting point was 179 to 181 °C. In the case of `Cc1ccc2[nH]cc(C(=O)[C@H]3CCCN3)c2c1`, the melting point is reported as 194 to 196 °C. Compound `O=[N+]([O-])c1c(Br)nn(CCO)c1NCc1ccccc1` has a melting point of 133 to 135 °C. With `CCCOc1cccc(C(NC2CCN(C)CC2)c2nc3ccccc3s2)c1` (stereo unspecified) the melting point was 90 °C. `O=C(O)c1ccc(CNC=C2C(=O)c3ccccc3OC2c2ccccc2)cc1` (stereo unspecified) gave a melting point of 195 to 200 °C. Work on `CC1(C)Oc2c(c(Cl)cc(Cl)c2-n2c(=O)cc(C(F)(F)F)[nH]c2=O)C1=O` yielded a melting point of 308 to 320 °C. In the case of `O=C(O)C1=Cc2cc(Cl)cc(I)c2OC1C(F)(F)F` (stereo unspecified), the melting point is reported as 220 to 223 °C. Compound `CCOc1cc2c(cc1OCC)C(C(C#N)SCCCO)=NCC2` (stereo unspecified) has a melting point of 100 to 105 °C. In the case of `N#Cc1ccc(Cn2cncc2CCOc2ccc3c(c2CCc2ccccc2)CCCC3=O)cc1`, the melting point is reported as 179 to 180 °C. `COc1ccc(CSc2nnc(-c3ccc4nccn4c3)o2)cc1C#N` showed a melting point of 211 to 212 °C. With `CN(C)c1ccc(/C=C/c2ccc(F)c(F)c2)cc1` the melting point was 159 to 160 °C. In the case of `CC(C)N1C(=O)c2cnc(-c3ccccc3)nc2N(C(=O)CN2CCN(C)CC2)c2ccccc21`, the melting point is reported as 168 to 170 °C. Work on `COc1ccc(CC2SC(=O)NC2=O)cc1CC(=O)Nc1ccc(Oc2ccccc2)cc1` (stereo unspecified) yielded a melting point of 82 to 84 °C. `O=C(c1ccccc1)C1CCCc2cccnc21` (stereo unspecified) showed a melting point of 205 to 207 °C. Work on `O=C(Cc1ccc(OCc2cccs2)cc1)NC1(C(=O)O)Cc2ccc(-c3ccc(Cl)cc3)cc2C1` (stereo unspecified) yielded a melting point of 201 °C. For `CCc1cc(O)n2ncc(CC)c2n1`, the melting point was over 310 °C. For `CS(=O)c1ccc(C2=C(c3ccc(F)cc3)C(=O)C(C)(C)O2)cc1` (stereo unspecified), the melting point was 134 to 136 °C. In the case of `C[C@H](Cn1ncnn1)n1cnc2cc3c(=O)n(Cc4c[nH]nn4)nnc3cc2c1=O`, the melting point is reported as 180 to 182 °C. `COC(=O)c1nc(NC(C)=O)sc1-c1ccc(SC)cc1` gave a melting point of 253 to 254 °C. In the case of `COc1ccc2c(c1)C(=O)N(c1ccc3ccn(C)c3c1)C2`, the melting point is reported as 158 to 161 °C. `CCc1cc(CSCCNC(=C[N+](=O)[O-])NC)oc1CN(C)C` showed a melting point of 91 °C. For `COc1cc2c(c(OC)c1OC)-c1ccc([N+](=O)[O-])cc1COC2`, the melting point was 161 °C. For `COc1cc(OC)cc(-c2ncoc2-c2ccc(OC(F)(F)F)c(N)c2)c1`, the melting point was 119 to 120 °C. For `O=C(Oc1ccccc1)C(=O)Oc1ccc2c(c1)C(c1ccccc1)C(=O)O2` (stereo unspecified), the melting point was 134 °C. `Cc1c(/C=C/C(=O)c2cccc3ccccc23)ncn1C(c1ccccc1)(c1ccccc1)c1ccccc1` gave a melting point of 184 to 186 °C. In the case of `COc1cccc(CNC(=O)c2nc3scc(COCc4ccc(CO)cc4)c3c(=O)[nH]2)c1`, the melting point is reported as 156 to 157 °C. For `COc1ccc(-c2nc(-c3ccc[nH]3)n(CCCBr)c2-c2ccc(OC)cc2)cc1`, the melting point was 97 °C. Compound `COC(=O)c1cccc(NC(=O)NCC(=O)N(CC(=O)N2CCCC2)c2ccccc2C(=O)c2ccccc2)c1` has a melting point of 189 to 194 °C. `COc1cc2c3c(cccc3c1)C(=O)c1c(O)cccc1-2` showed a melting point of 207 to 208 °C. Compound `COC(=O)Cc1cc2c(cc1CC1NCCc3cc(OC)c(OC)cc31)OCO2` (stereo unspecified) has a melting point of 99 to 101 °C. `N#CSCOc1c(Cl)cc(Cl)c(Cl)c1Cl` gave a melting point of 51 to 53 °C. For `CC(N)Cn1ncc2ccc3oc(C(=O)NCC(C)O)cc3c21` (stereo unspecified), the melting point was 190 to 191 °C. `CS(=O)(=O)NCCCCCCCCCCCCn1c2c(c3ccccc3c1=O)C(=O)c1ccccc1-2` showed a melting point of 113 to 117 °C. `O=C1c2ccccc2C(c2ccccc2)N1C1CCN(CCC(c2ccccc2)c2ccccc2)CC1` (stereo unspecified) showed a melting point of 65 to 69 °C. For `Cc1ccc(N2CCN(c3c(C)c(C)c4c(c3C)CC(C)(CO)O4)CC2)cc1` (stereo unspecified), the melting point was 152 to 155 °C. `COC(=O)CCCc1cc2cc(Cl)ccc2n1S(=O)(=O)c1ccc(S(=O)(=O)N2CCOCC2)cc1` showed a melting point of 54 °C. `CCOC(=O)COc1cc(Cl)c2c(=O)c(-c3ccccc3C)coc2c1` showed a melting point of 122 to 123 °C. `Oc1ccc(C(=C(c2ccccc2)C(F)(F)F)c2ccc(OCCN3CCOCC3)cc2)cc1` showed a melting point of 154 to 157 °C. Compound `Clc1ccc(-c2onc3c(CBr)cc(Cl)cc23)cc1` has a melting point of 145 to 147 °C. `Cc1ccc(C(=O)N[C@@H]2COc3c(C)ccc(N4CCN(C)CC4)c3C2)cc1` gave a melting point of 191 to 192 °C. `Cn1c2ccccc2c(=O)n2nc(C(=O)O)cc12` showed a melting point of 265 °C. Compound `CCOC(=O)C(C)Oc1ccc(-c2nc(-c3ccc(OC(C)C(=O)OCC)cc3O)nc(-c3c(C)cc(C)cc3C)n2)c(O)c1` (stereo unspecified) has a melting point of 142 to 147 °C. With `CCCCOC(=O)CS(=O)(=O)CC=C1SC=CS1` the melting point was 99 to 100 °C. `COc1ccc(-n2nc(CCCO)cc2-c2ccc(Cl)cc2)cc1` showed a melting point of 87.5 to 88 °C. With `COc1ccc2c(c1)CCC(=O)C2CC(=O)c1ccccc1` (stereo unspecified) the melting point was 55 to 59 °C. `CC(C)(C)COc1cccc(C[C@@H](NC(=O)c2cccc3c2C=CCCC3)[C@@H](O)c2cccc(Cl)c2)c1` (racemic) showed a melting point of 128 to 129 °C. Work on `c1ccc(Sc2ccc(Sc3ccccc3)s2)cc1` yielded a melting point of 47 to 48 °C. `O=c1c2cccc(O)c2nc(-c2ccc(OCCCl)cc2)n1-c1ccc(O)cc1` showed a melting point of 188 to 190 °C. With `Cc1cccc(-c2nc3cccnn3c2-c2ccnc(N[C@@H](C)c3ccccc3)c2)c1` the melting point was 154 to 155 °C. `CCOC(=O)c1cc(=O)c2[nH]ncc2[nH]1` gave a melting point of 287 to 292 °C. `Cc1c(C(=O)Nc2ccc(N3CCN(C4CCOCC4)CC3)c(C#N)c2)cnn1-c1ccc(Br)cc1` showed a melting point of 288 °C.
